The results in this text go back to patent US20040097573A1, “Use of a COX-2 inhibitor and a NK-1 receptor antagonist for treating inflammation” (priority 1998, published 2004).

The subject of assay [1] is cisplatin-induced emesis in ferrets. Nature of the assay: Ferret emesis (Assay 3). The following applies: p.o. The class given is in vivo. Here is the method: ASSAY 3: Ferret Emesis Individually housed male ferrets (1.0-2.5 kg) are dosed orally by gavage with test compound. Ten minutes later they are fed with approximately 100 g of tinned cat food. At 60 minutes following oral dosing, cisplatin (10 mg/kg) is given i.v. via a jugular vein catheter inserted under a brief period of halothane anaesthesia. The catheter is then removed, the jugular vein ligated and the skin incision closed. The ferrets recover rapidly from the anaesthetic and are mobile within 10-20 minutes. The animals are observed continuously during recovery from the anaesthetic and for 4 hours following the cisplatin injection, after which time the animals are killed humanely. The numbers of retches and vomits occurring during the 4 hours after cisplatin administration are recorded by trained observers.

Assay [2] relates to foot tapping in gerbils induced by central infusion of NK-1 receptor agonists such as GR73632. Briefly: Gerbil foot-tapping (Assay 2). Format: in vivo, Mongolian gerbils. The note with it: i.v. An excerpt: ASSAY 2: Gerbil Foot-Tapping
CNS-penetrant NK-1 receptor antagonists for use in the present invention can be identified by their ability to inhibit foot tapping in gerbils induced by central infusion of NK-1 receptor agonists such as GR73632, based on the method of Rupniak & Williams, Eur. J. Pharmacol., 1994, 265, 179.
Male or female Mongolian gerbils (35-70 g) are anaesthetised by inhalation of an isoflurane/oxygen mixture to permit exposure of the jugular vein in order to permit administration of test compounds or vehicle in an injection volume of approximately 5 ml/kg i.v. Alternatively, test compounds may be administered orally or by subcutaneous or intraperitoneal routes. A skin incision is then made in the midline of the scalp to expose the skull. The selective NK-1 receptor agonist (e.g. GR73632 (d Ala[L-Pro^9,Me-Leu^10]-substance P-(7-11)) is infused directly into the cerebral ventricles (e.g. 3 pmol in 5 μl i.c.v., depending on test substance) by vertical insertion of a cuffed 27 gauge needle to a depth of 4.5 mm below bregma. The scalp incision is closed and the animal allowed to recover from anaesthesia in a clear perspex observation box (approximately 25 cm×20 cm×20 cm). The duration and/or intensity of hind foot tapping is then recorded continuously for approximately 5 minutes.

For `C[C@@H](O[C@H]1OCCN(Cc2n[nH]c(=O)[nH]2)[C@H]1c1ccc(F)cc1)c1cc(C(F)(F)F)cc(C(F)(F)F)c1` [2-(R)-(1-(R)-(3,5-bis(trifluoromethyl)phenyl)-ethoxy)-3-(S)-(4-fluorophenyl)-4-(3-(5-oxo-1H,4H-1,2,4-triazolo)methyl)-morpholine], the “ferret emesis ID90” value in assay [1] was “ID90 < 3 mg/kg p.o”. Further, in assay [2], the “gerbil foot-tapping (5 mins.) ID50” value was “ID50 = 0.36 mg/kg i.v” and the “gerbil foot-tapping (24 hrs.) ID50” value was “ID50 = 0.33 mg/kg i.v”.

Turning to `C[C@@H](O[C@H]1OCCN(Cc2nn[nH]c2CN(C)C)[C@H]1c1ccccc1)c1cc(C(F)(F)F)cc(C(F)(F)F)c1` [2-(R)-(1-(R)-(3,5-bis(trifluoromethyl)phenyl)ethoxy)-4-(5-(N,N-dimethylamino)methyl-1,2,3-triazol-4-yl)methyl-3-(S)-phenylmorpholine], in assay [2], the “gerbil foot-tapping (5 mins.) ID50” value is given as “ID50 = 0.12 mg/kg i.v” and the “gerbil foot-tapping (24 hrs.) ID50” value is given as “ID50 = 0.17 mg/kg i.v”.
